Results taken from ChEMBL document CHEMBL1781889, “A chemometric study of the 5-HT(1A) receptor affinities presented by arylpiperazine compounds” (Eur J Med Chem, 2008).
pKi: −log10 of the molar value.

Target: T1, 5-hydroxytryptamine receptor 1A (Homo sapiens, UniProt P08908)
T1 sequence (P08908 whole entry): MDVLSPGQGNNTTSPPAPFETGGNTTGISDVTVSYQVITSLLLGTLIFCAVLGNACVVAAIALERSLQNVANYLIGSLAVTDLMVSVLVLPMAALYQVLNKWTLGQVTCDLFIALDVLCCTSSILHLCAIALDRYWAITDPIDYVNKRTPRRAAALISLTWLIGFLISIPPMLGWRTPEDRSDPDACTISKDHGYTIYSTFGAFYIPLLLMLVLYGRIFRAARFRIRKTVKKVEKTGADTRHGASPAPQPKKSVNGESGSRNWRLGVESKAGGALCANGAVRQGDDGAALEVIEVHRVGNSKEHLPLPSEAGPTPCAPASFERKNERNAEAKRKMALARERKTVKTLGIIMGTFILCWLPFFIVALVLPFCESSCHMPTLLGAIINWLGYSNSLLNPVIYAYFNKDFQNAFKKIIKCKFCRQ
Experiment: Binding affinity to 5HT1A receptor

With `COc1cc(Cl)ccc1N1CCN(CCC(O)c2csc3ccccc23)CC1` (stereo unspecified) the pKi was 6.44.
In the case of `O=C(CCN1CCN(c2ccccc2Cl)CC1)c1ccsc1`, the pKi was 6.70.
With `Cc1cc(C(=O)CCN2CCN(c3cccc4ccccc34)CC2)c(C)s1` the pKi was 7.00.
`Oc1ccccc1N1CCN(CCC(O)c2csc3ccccc23)CC1` (stereo unspecified) was tested, and the pKi was 7.74.
Compound `COc1ccc(N2CCN(CCC(O)c3ccccc3)CC2)cc1` (stereo unspecified) has a pKi of 5.30.
In the case of `O=C(CCN1CCN(c2ccc(F)cc2)CC1)c1ccccc1`, the pKi was 6.10.
`O=C(CCN1CCN(c2cccc3ccccc23)CC1)c1csc2ccccc12` was tested, and the pKi was 7.00.
In the case of `O=C(CCN1CCN(c2ccccn2)CC1)c1ccccc1`, the pKi was 7.30.
Compound `COc1ccccc1N1CCN(CCC(=O)c2cc(C)sc2C)CC1` has a pKi of 8.30.
Compound `COc1ccccc1N1CCN(CCC(O)c2ccc3ccccc3c2)CC1` (stereo unspecified) has a pKi of 6.38.
With `COc1ccc(N2CCN(CCC(O)c3ccc(-c4ccccc4)cc3)CC2)cc1` (stereo unspecified) the pKi was 6.07.
In the case of `FC(F)(F)c1ccc(OC(CCN2CCN(c3ccccc3Cl)CC2)c2ccccc2)cc1` (stereo unspecified), the pKi was 5.30.
`COc1ccccc1N1CCN(CCC(=O)c2cccs2)CC1` showed a pKi of 8.00.
`COc1ccccc1N1CCN(CCC(O)c2ccc(C)s2)CC1` (stereo unspecified) was tested, and the pKi was 7.47.
`COc1cc(Cl)ccc1N1CCN(CCC(=O)c2csc3ccccc23)CC1` gave a pKi of 6.30.
With `COc1ccccc1N1CCN(CCC(=O)c2ccc(C)s2)CC1` the pKi was 7.76.
`OC(CCN1CCN(c2ccccc2Cl)CC1)c1ccsc1` (stereo unspecified) gave a pKi of 6.70.
Work on `COc1ccc(C(O)CCN2CCN(c3ccccc3OC)CC2)cc1` (stereo unspecified) yielded a pKi of 6.49.
`O=C(CCN1CCN(c2ccccc2O)CC1)c1csc2ccccc12` gave a pKi of 6.96.
`COc1ccccc1N1CCN(CCC(=O)c2ccc3ccccc3c2)CC1` was tested, and the pKi was 6.60.
`O=C(CCN1CCN(c2ccccc2Cl)CC1)c1ccccc1` showed a pKi of 6.74.
Compound `Fc1ccc(N2CCN(CCC(Oc3ccc(C(F)(F)F)cc3)c3ccccc3)CC2)cc1` (stereo unspecified) has a pKi of 5.30.
`FC(F)(F)c1ccc(OC(CCN2CCN(c3ncccn3)CC2)c2ccccc2)cc1` (stereo unspecified) gave a pKi of 5.80.
For `OC(CCN1CCN(c2ccccn2)CC1)c1ccccc1` (stereo unspecified), the pKi was 6.81.
Compound `OC(CCN1CCN(c2ccc(Cl)cc2)CC1)c1csc2ccccc12` (stereo unspecified) has a pKi of 5.30.
In the case of `COc1ccccc1N1CCN(CCC(O)c2csc3ccccc23)CC1` (stereo unspecified), the pKi was 7.70.
With `O=C(CCN1CCN(c2cccc3ccccc23)CC1)c1ccsc1` the pKi was 7.46.
`Cc1cc(C(=O)CCN2CCN(c3ccccc3O)CC2)c(C)s1` gave a pKi of 8.12.
`COc1ccccc1N1CCN(CCC(Oc2ccc(C(F)(F)F)cc2)c2ccc(-c3ccccc3)cc2)CC1` (stereo unspecified) was tested, and the pKi was 5.30.
In the case of `Cc1ccc(OC(CCN2CCN(c3ccc(Cl)cc3)CC2)c2ccccc2)cc1` (stereo unspecified), the pKi was 5.84.
With `COc1ccccc1N1CCN(CCC(=O)c2ccc(-c3ccccc3)cc2)CC1` the pKi was 5.44.
`COc1ccccc1N1CCN(CC/C(=N\O)c2ccccc2)CC1` showed a pKi of 7.76.
`O=C(CCN1CCN(c2ccc(Cl)cc2)CC1)c1ccccc1` showed a pKi of 6.10.
For `COc1ccccc1N1CCN(CCC(=O)c2ccc([N+](=O)[O-])s2)CC1`, the pKi was 6.47.
`O=[N+]([O-])c1ccc(N2CCN(CCC(Oc3ccc(C(F)(F)F)cc3)c3ccccc3)CC2)cc1` (stereo unspecified) gave a pKi of 5.30.
`COc1ccccc1N1CCN(CCC(O)c2ccccc2)CC1` (stereo unspecified) gave a pKi of 7.32.
With `COc1ccccc1N1CCN(CCC(O)c2cccs2)CC1` (stereo unspecified) the pKi was 7.72.
In the case of `O=C(CCN1CCN(c2ccc([N+](=O)[O-])cc2)CC1)c1ccccc1`, the pKi was 5.30.
`COc1ccc(C(CCN2CCN(c3ccccc3OC)CC2)Oc2ccc(C(F)(F)F)cc2)cc1` (stereo unspecified) was tested, and the pKi was 6.00.
In the case of `COc1ccc(N2CCN(CCC(=O)c3ccccc3)CC2)cc1`, the pKi was 5.30.
Compound `OC(CCN1CCN(c2ccccc2Cl)CC1)c1ccccc1` (stereo unspecified) has a pKi of 6.94.
For `COc1ccc(N2CCN(CCC(Oc3ccc(C(F)(F)F)cc3)c3ccccc3)CC2)cc1` (stereo unspecified), the pKi was 5.30.
Work on `O=C(CCN1CCN(c2ccc(Cl)cc2)CC1)c1cccs1` yielded a pKi of 5.30.
Compound `Cc1cc(C(O)CCN2CCN(c3ccccc3O)CC2)c(C)s1` (stereo unspecified) has a pKi of 7.04.
In the case of `O=[N+]([O-])c1ccc(N2CCN(CCC(O)c3ccccc3)CC2)cc1` (stereo unspecified), the pKi was 5.30.
`O=C(CCN1CCN(c2ncccn2)CC1)c1ccccc1` gave a pKi of 6.92.
In the case of `OC(CCN1CCN(c2ccc(Cl)cc2)CC1)c1ccccc1` (stereo unspecified), the pKi was 6.10.
`COc1ccccc1N1CCN(CCC(Oc2ccc(C(F)(F)F)cc2)c2ccccc2)CC1` (stereo unspecified) was tested, and the pKi was 6.35.
`COc1ccccc1N1CCN(CCC(O)c2ccsc2)CC1` (stereo unspecified) gave a pKi of 7.30.
`OC(CCN1CCN(c2ccc(Cl)cc2)CC1)c1cccs1` (stereo unspecified) gave a pKi of 5.30.
`COc1cc(F)ccc1N1CCN(CCC(=O)c2csc3ccccc23)CC1` was tested, and the pKi was 6.30.
For `COc1ccccc1N1CCN(CC/C(=N\O)c2ccsc2)CC1`, the pKi was 8.19.
In the case of `OC(CCN1CCN(c2ccc(Cl)cc2)CC1)c1ccc2ccccc2c1` (stereo unspecified), the pKi was 5.30.
With `Clc1ccc(N2CCN(CCC(Oc3ccc4c(c3)OCO4)c3ccccc3)CC2)cc1` (stereo unspecified) the pKi was 6.26.
`COc1ccccc1N1CCN(CCC(O)c2cc(C)sc2C)CC1` (stereo unspecified) was tested, and the pKi was 7.92.
`COc1ccccc1N1CCN(CCC(=O)c2ccsc2)CC1` was tested, and the pKi was 7.80.
`O=C(CCN1CCN(c2ccc(Cl)cc2)CC1)c1ccc2ccccc2c1` was tested, and the pKi was 5.30.
With `COc1ccccc1N1CCN(CCC(=O)c2csc3ccccc23)CC1` the pKi was 7.36.
With `COc1cc(F)ccc1N1CCN(CCC(O)c2csc3ccccc23)CC1` (stereo unspecified) the pKi was 6.30.
For `O=C(CCN1CCN(c2ccc(Cl)cc2)CC1)c1csc2ccccc12`, the pKi was 5.30.
For `COc1ccccc1N1CCN(CCC(Oc2ccc(C(F)(F)F)cc2)c2ccsc2)CC1` (stereo unspecified), the pKi was 6.59.
